In ChEMBL document CHEMBL4387701, “H2depda: An acyclic adjuvant potentiates meropenem activity in vitro against metallo-β-lactamase-producing enterobacterales” (Eur J Med Chem, 2019):
≈ marks a conversion by molar mass, not a printed value. Calls of active or inactive are those of the source. The calls are words filed in the database; no cut-off is given here.

Legend:
Klebsiella pneumoniae [1] = test: Effect on growth of Klebsiella pneumoniae isolate 10 after 24 hrs by broth microdilution method; type: organism-based
Klebsiella pneumoniae [2] = test: Inhibition of IMP4 in Klebsiella pneumoniae isolate 12 assessed as potentiation of meropenem-induced antibacterial activity by measuring meropenem MIC after 24 hrs by broth microdilution method (reference value: 16 ug/ml)
Escherichia coli [3] = test: Inhibition of NDM1 in Escherichia coli isolate 8 assessed as potentiation of meropenem-induced antibacterial activity by measuring meropenem MIC after 24 hrs by broth microdilution assay (reference value: 320 ug/ml)
[4] = test system: Escherichia coli ATCC 25922; test: Inhibition of IMP-4 in Escherichia coli ATCC 25922 assessed as potentiation of meropenem-induced antibacterial activity by measuring zone of inhibition by agar disk diffusion method
Enterobacter cloacae [5] = test: Effect on growth of Enterobacter cloacae isolate 5 after 24 hrs by broth microdilution assay; type: organism-based
Proteus mirabilis [6] = test: Inhibition of IMP4 in Proteus mirabilis isolate 19 assessed as potentiation of meropenem-induced antibacterial activity by measuring meropenem MIC after 24 hrs by broth microdilution method (reference value: 320 ug/ml)
[7] = molecular target: T1, Metallo-beta-lactamase NDM-4 (Escherichia coli) (UniProt H6WZS9); test: Inhibition of Escherichia coli NDM4 assessed as potentiation of meropenem-induced antibacterial activity by measuring bacterial growth rate at 64 ug/mL after 24 hrs in presence of ZnCl2 by broth microdilution method relative to control
T1 sequence (whole entry): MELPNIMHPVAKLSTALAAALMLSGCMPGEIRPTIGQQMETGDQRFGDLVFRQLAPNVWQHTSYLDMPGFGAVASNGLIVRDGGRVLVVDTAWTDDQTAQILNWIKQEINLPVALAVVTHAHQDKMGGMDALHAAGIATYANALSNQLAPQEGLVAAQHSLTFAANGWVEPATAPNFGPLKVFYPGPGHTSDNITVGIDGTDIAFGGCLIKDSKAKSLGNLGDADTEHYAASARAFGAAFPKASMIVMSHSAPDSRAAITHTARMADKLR

Escherichia coli [8] = test: Effect on growth of Escherichia coli isolate 8 after 24 hrs by broth microdilution assay; type: organism-based
Escherichia coli [9] = test: Effect on growth of Escherichia coli isolate 9 after 24 hrs by broth microdilution assay; type: organism-based
Enterobacter cloacae [10] = test: Inhibition of IMP4 in Enterobacter cloacae isolate 16 assessed as potentiation of meropenem-induced antibacterial activity by measuring meropenem MIC after 24 hrs by broth microdilution method (reference value: 64 ug/ml)
Enterobacter cloacae [11] = test: Effect on growth of Enterobacter cloacae isolate 15 after 24 hrs by broth microdilution method; type: organism-based
[12] = test system: Escherichia coli ATCC 25922; test: Inhibition of IMP-4 in Escherichia coli ATCC 25922 assessed as potentiation of meropenem-induced antibacterial activity by measuring diameter of inhibition zone measured after 18 hrs by agar disk diffusion method
Enterobacter cloacae [13] = test: Inhibition of IMP4 in Enterobacter cloacae isolate 15 assessed as potentiation of meropenem-induced antibacterial activity by measuring meropenem MIC after 24 hrs by broth microdilution method (reference value: 32 ug/ml)
Escherichia coli [14] = test: Effect on growth of NDM4-positive Escherichia coli assessed as bacterial growth at 64 ug/mL after 24 hrs by broth microdilution method relative to control; type: organism-based
Klebsiella pneumoniae [15] = test: Inhibition of IMP4 in Klebsiella pneumoniae isolate 13 assessed as potentiation of meropenem-induced antibacterial activity by measuring meropenem MIC after 24 hrs by broth microdilution method (reference value: 320 ug/ml)
Enterobacter cloacae [16] = test: Inhibition of NDM1 in Enterobacter cloacae isolate 5 assessed as potentiation of meropenem-induced antibacterial activity by measuring meropenem MIC after 24 hrs by broth microdilution assay (reference value: 640 ug/ml)
[17] = Cytotoxicity against human HeLa cells assessed as inhibition of growth at 1000 ug/mL after 24 hrs by CCK8 assay relative to control; type: cell-based; details: read-out: GI
Enterobacter cloacae [18] = test: Inhibition of IMP4 in Enterobacter cloacae clinical isolate 15 assessed as potentiation of meropenem-induced antibacterial activity by measuring reduction in meropenem MIC after 24 hrs by broth microdilution method (reference value: 32 ug/ml)
Proteus mirabilis [19] = test: Effect on growth of Proteus mirabilis isolate 19 after 24 hrs by broth microdilution method; type: organism-based
Escherichia coli [20] = test: Effect on growth of Escherichia coli isolate 18 after 24 hrs by broth microdilution method; type: organism-based
Escherichia coli [21] = test: Inhibition of NDM-7 in Escherichia coli isolate 2 assessed as potentiation of meropenem-induced antibacterial activity by measuring meropenem MIC after 24 hrs by broth microdilution assay (reference value: 640 ug/ml)
[22] = molecular target: T1, Metallo-beta-lactamase NDM-4 (Escherichia coli); test: Inhibition of NDM4 in Escherichia coli isolate 3 assessed as potentiation of meropenem-induced bactericidal activity by measuring bacterial killing in late exponential phase at 64 ug/ml incubated for 24 hrs followed by replating on agar plates for 16 to 18 hrs and measured up to 24 hrs by time kill assay; details: TDE = time-dependent effect
Enterobacter cloacae [23] = test: Inhibition of NDM1 in Enterobacter cloacae isolate 4 assessed as potentiation of meropenem-induced antibacterial activity by measuring meropenem MIC after 24 hrs by broth microdilution assay (reference value: 640 ug/ml)
[24] = molecular target: T1, Metallo-beta-lactamase NDM-4 (Escherichia coli); test: Inhibition of Escherichia coli NDM4 assessed as potentiation of meropenem-induced antibacterial activity by measuring reduction in bacterial growth at 64 ug/mL after 24 hrs by broth microdilution method relative to control
Escherichia coli [25] = test: Effect on growth of Escherichia coli isolate 1 after 24 hrs by broth microdilution assay; type: organism-based
Escherichia coli [26] = test: Inhibition of NDM1 in Escherichia coli isolate 9 assessed as potentiation of meropenem-induced antibacterial activity by measuring meropenem MIC after 24 hrs by broth microdilution assay
Escherichia coli [27] = test: Inhibition of IMP4 in Escherichia coli isolate 18 assessed as potentiation of meropenem-induced antibacterial activity by measuring meropenem MIC after 24 hrs by broth microdilution method (reference value: 16 ug/ml)
Klebsiella pneumoniae [28] = test: Effect on growth of Klebsiella pneumoniae isolate 17 after 24 hrs by broth microdilution method; type: organism-based
Citrobacter freundii = test: Inhibition of NDM1 in Citrobacter freundii clinical isolate 7 assessed as potentiation of meropenem-induced antibacterial activity by measuring meropenem MIC after 24 hrs by broth microdilution assay
[29] = molecular target: T1, Metallo-beta-lactamase NDM-4 (Escherichia coli); test: Inhibition of Escherichia coli isolate 3 NDM4 assessed as potentiation of meropenem-induced antibacterial activity by measuring reduction in meropenem MIC after 24 hrs by broth microdilution method relative to meropenem alone
Klebsiella pneumoniae [30] = test: Effect on growth of Klebsiella pneumoniae isolate 12 after 24 hrs by broth microdilution method; type: organism-based
[31] = molecular target: T1, Metallo-beta-lactamase NDM-4 (Escherichia coli); test: Inhibition of NDM4 in Escherichia coli ATCC 25922 assessed as potentiation of meropenem-induced antibacterial activity by measuring zone of inhibition by agar disk diffusion method
Klebsiella pneumoniae [32] = test: Effect on growth of Klebsiella pneumoniae isolate 13 after 24 hrs by broth microdilution method; type: organism-based
Escherichia coli [33] = test: Effect on growth of Escherichia coli isolate 11 after 24 hrs by broth microdilution method; type: organism-based
[34] = molecular target: T1, Metallo-beta-lactamase NDM-4 (Escherichia coli); test: Inhibition of NDM4 in Escherichia coli isolate 3 assessed as potentiation of meropenem-induced antibacterial activity by measuring meropenem MIC after 24 hrs by broth microdilution assay (reference value: 1280 ug/ml)
Enterobacter cloacae [35] = test: Effect on growth of Enterobacter cloacae isolate 6 after 24 hrs by broth microdilution assay; type: organism-based

| MIC (Klebsiella pneumoniae [1]) | MIC (Klebsiella pneumoniae [2]) | MIC (Escherichia coli [3]) | inhibition zone (IZ) [4] | MIC (Enterobacter cloacae [5]) | MIC (Proteus mirabilis [6]) | inhibition [7] | MIC (Escherichia coli [8]) | MIC (Escherichia coli [9]) | MIC (Enterobacter cloacae [10]) | MIC (Enterobacter cloacae [11]) | inhibition zone (IZ) [12] | MIC (Enterobacter cloacae [13]) | Activity (Escherichia coli [14]) | MIC (Klebsiella pneumoniae [15]) | MIC (Enterobacter cloacae [16]) | fold change (FC) (Enterobacter cloacae [18]) | MIC (Proteus mirabilis [19]) | MIC (Escherichia coli [20]) | Compound | inhibition at 24 h, 1000 ug/mL [17] | also measured |
| --- | --- | --- | --- | --- | --- | --- | --- | --- | --- | --- | --- | --- | --- | --- | --- | --- | --- | --- | --- | --- | --- |
| 64 mg/L (≈ 112 µM) | 1 mg/L | 0.0625 mg/L | 15.9 mm | 64 mg/L (≈ 112 µM) | 2 mg/L | 81% | 64 mg/L (≈ 112 µM) | 32 mg/L (≈ 56.1 µM) | 2 mg/L | 32 mg/L (≈ 56.1 µM) | 2 to 5 mm | 0.5 mg/L | 95% | 4 mg/L | 0.5 mg/L | 64 | 32 mg/L (≈ 56.1 µM) | 32 mg/L (≈ 56.1 µM) | COc1ccc(CN(CCN(Cc2ccc(OC)cc2)Cc2cccc(C(=O)O)n2)Cc2cccc(C(=O)O)n2)cc1 | < 50% | MIC (Escherichia coli [21]): 0.0625 mg/L; inhibition [22]: Tde; MIC (Enterobacter cloacae [23]): 0.0625 mg/L; inhibition [24]: Active; MIC (Escherichia coli [25]): 32 mg/L (≈ 56.1 µM); MIC (Escherichia coli [26]): 0.125 mg/L; MIC (Escherichia coli [27]): 2 mg/L; MIC (Klebsiella pneumoniae [28]): 32 mg/L (≈ 56.1 µM); MIC (Citrobacter freundii): 1 mg/L; fold change (FC) [29]: 41000; MIC (Klebsiella pneumoniae [30]): 32 mg/L (≈ 56.1 µM); inhibition zone (IZ) [31]: 21.4 mm; MIC (Klebsiella pneumoniae [32]): 32 mg/L (≈ 56.1 µM); MIC (Escherichia coli [33]): 64 mg/L (≈ 112 µM); MIC [34]: < 0.0312 mg/L; MIC (Enterobacter cloacae [35]): 32 mg/L (≈ 56.1 µM) |
| 64 mg/L (≈ 194 µM) | 0.5 mg/L | 0.0625 mg/L | 18.3 mm | 64 mg/L (≈ 194 µM) | 2 mg/L | 81% | 64 mg/L (≈ 194 µM) | 32 mg/L (≈ 96.9 µM) | 2 mg/L | 32 mg/L (≈ 96.9 µM) | 2 to 5 mm | 0.5 mg/L | 95% | 4 mg/L | 0.5 mg/L | 64 | 32 mg/L (≈ 96.9 µM) | 32 mg/L (≈ 96.9 µM) | O=C(O)c1cccc(CNCCNCc2cccc(C(=O)O)n2)n1 | < 50% | MIC (Escherichia coli [21]): 0.125 mg/L; inhibition [22]: Tde; MIC (Enterobacter cloacae [23]): 0.25 mg/L; inhibition [24]: Active; MIC (Escherichia coli [25]): 32 mg/L (≈ 96.9 µM); MIC (Escherichia coli [26]): 0.25 mg/L; MIC (Escherichia coli [27]): 2 mg/L; MIC (Klebsiella pneumoniae [28]): 32 mg/L (≈ 96.9 µM); MIC (Citrobacter freundii): 1 mg/L; fold change (FC) [29]: 41000; MIC (Klebsiella pneumoniae [30]): 64 mg/L (≈ 194 µM); inhibition zone (IZ) [31]: 20.2 mm; MIC (Klebsiella pneumoniae [32]): 32 mg/L (≈ 96.9 µM); MIC (Escherichia coli [33]): 64 mg/L (≈ 194 µM); MIC [34]: < 0.0312 mg/L; MIC (Enterobacter cloacae [35]): 32 mg/L (≈ 96.9 µM) |
